Assay results published in ChEMBL document CHEMBL3046360, “Design, synthesis and preliminary antiviral screening of new N-phenylpyrazole and dihydroisoxazole derivatives” (Med Chem Res, 2010).
Activity calls are given as the source filed them. The rule behind the calls is not given here.

Experiments:
[1] = tested on: Human immunodeficiency virus 2; experiment: Antiviral activity against Human immunodeficiency virus type 2 (ISOLATE ROD) infected MT4 cells assessed as inhibition of virus-induced cytopathic effect up to 20 ug/ml after 5 days by MTT assay; format: functional, organism-based
[2] = Cytotoxicity against Chlorocebus aethiops (African green monkey) Vero cells after 3 days by microscopic analysis; format: cell-based; conditions: chlorocebus sabaeus
Human alphaherpesvirus 1 [3] = experiment: Antiviral activity against Human herpesvirus 1 infected Vero cells assessed as reduction in viral plaque at 20 ug/ml after overnight incubation by crystal violet staining; format: functional; set-up: scale not given: the % may be the effect or the level left
Hepatovirus A [4] = experiment: Antiviral activity against Hepatitis A virus infected Vero cells assessed as reduction in viral plaque at 10 ug/ml after overnight incubation by crystal violet staining; format: functional; set-up: scale not given: the % may be the effect or the level left
Human alphaherpesvirus 1 [5] = experiment: Antiviral activity against Human herpesvirus 1 infected Vero cells assessed as reduction in viral plaque at 10 ug/ml after overnight incubation by crystal violet staining; format: functional; set-up: scale not given: the % may be the effect or the level left
Hepatovirus A [6] = experiment: Antiviral activity against Hepatitis A virus infected Vero cells assessed as reduction in viral plaque at 20 ug/ml after overnight incubation by crystal violet staining; format: functional; set-up: scale not given: the % may be the effect or the level left
[7] = tested on: Human immunodeficiency virus 1; experiment: Antiviral activity against Human immunodeficiency virus 1 IIIB infected MT4 cells assessed as inhibition of virus-induced cytopathic effect up to 20 ug/ml after 5 days by MTT assay; format: functional, organism-based
Human alphaherpesvirus 2 = experiment: Antiviral activity against Human herpesvirus 2 strain G infected HEL cells assessed as inhibition of virus-induced cytopathic effect after 3 days by MTT assay; format: functional, organism-based; conditions: Human alphaherpesvirus 2, strain G, 72 h
Human alphaherpesvirus 1 [8] = experiment: Antiviral activity against Human herpesvirus 1 strain KOS infected in HEL cells assessed as inhibition of virus-induced cytopathic effect after 3 days by MTT assay; format: functional, organism-based; conditions: Human alphaherpesvirus 1, KOS, 72 h
[9] = tested on: Vesicular stomatitis virus; experiment: Antiviral activity against Vesicular stomatitis virus infected HEL cells assessed as inhibition of virus-induced cytopathic effect after 3 days by MTT assay; format: functional, organism-based; conditions: 72 h
[10] = Cytotoxicity against Homo sapiens (human) HEL cells after 3 days by microscopic analysis; format: cell-based
Human alphaherpesvirus 1 [11] = experiment: Antiviral activity against acyclovir-resistant TK-deficient Hepres simplex virus 1 KOS infected in HEL cells assessed as inhibition of virus-induced cytopathic effect after 3 days by MTT assay; format: functional, organism-based; conditions: Human alphaherpesvirus 1, KOS, 72 h
[12] = Cytotoxicity against Homo sapiens (human) HeLa cells after 3 days by microscopic analysis; format: cell-based
[13] = Selectivity ratio of MCC for human HEL cells to EC50 for Herpes simplex virus 2 G; format: ADME, cell-based
Reovirus sp. = experiment: Antiviral activity against Mammalian orthoreovirus 1 virus infected Vero cells assessed as inhibition of virus-induced cytopathic effect after 3 days by MTT assay; format: functional, organism-based; conditions: 72 h
[14] = tested on: Respiratory syncytial virus; experiment: Antiviral activity against Respiratory syncytial virus infected HeLa cells assessed as inhibition of virus-induced cytopathic effect after 3 days by MTT assay; format: functional, organism-based; conditions: human respiratory syncytial virus, 72 h
Sindbis virus = experiment: Antiviral activity against Sindbis virus infected Vero cells assessed as inhibition of virus-induced cytopathic effect after 3 days by MTT assay; format: functional, organism-based; conditions: 72 h
Punta Toro virus = experiment: Antiviral activity against Punta Toro virus infected Vero cells assessed as inhibition of virus-induced cytopathic effect after 3 days by MTT assay; format: functional, organism-based; conditions: 72 h
[15] = Selectivity ratio of MCC for human HEL cells to EC50 for acyclovir-resistant TK-deficient Hepres simplex virus 1 KOS; format: ADME, cell-based
Coxsackievirus B4 [16] = experiment: Antiviral activity against Human coxsackievirus B4 infected Vero cells assessed as inhibition of virus-induced cytopathic effect after 3 days by MTT assay; format: functional, organism-based; conditions: Enterovirus B, 72 h
[17] = Selectivity ratio of MCC for human HEL cells to EC50 for Vaccinia virus; format: ADME, cell-based
Vaccinia virus = experiment: Antiviral activity against Vaccinia virus infected in HEL cells assessed as inhibition of virus-induced cytopathic effect after 3 days by MTT assay; format: functional, organism-based; conditions: Orthopoxvirus vaccinia, 72 h
Coxsackievirus B4 [18] = experiment: Antiviral activity against Human coxsackievirus B4 infected HeLa cells assessed as inhibition of virus-induced cytopathic effect after 3 days by MTT assay; format: functional, organism-based; conditions: Enterovirus B, 72 h
[19] = tested on: Vesicular stomatitis virus; experiment: Antiviral activity against Vesicular stomatitis virus infected HeLa cells assessed as inhibition of virus-induced cytopathic effect after 3 days by MTT assay; format: functional, organism-based; conditions: 72 h
[20] = Selectivity ratio of MCC for human HEL cells to EC50 for Vesicular stomatitis virus; format: ADME, cell-based
[21] = Selectivity ratio of MCC for human HEL cells to EC50 for Herpes simplex virus 1 KOS; format: ADME, cell-based
Human respirovirus 3 = experiment: Antiviral activity against Human parainfluenza virus 3 infected Vero cells assessed as inhibition of virus-induced cytopathic effect after 3 days by MTT assay; format: functional, organism-based; conditions: Human respirovirus 3, Vero, 72 h

| Structure (SMILES) | Activity [1] | MCC at 72 h [2] | Activity (Human alphaherpesvirus 1 [3]) [%] | Activity (Hepatovirus A [4]) [%] | Activity (Human alphaherpesvirus 1 [5]) [%] | Activity (Hepatovirus A [6]) [%] | Activity [7] | EC50 (Human alphaherpesvirus 2) | EC50 (Human alphaherpesvirus 1 [8]) | EC50 [9] | MCC at 72 h [10] | EC50 (Human alphaherpesvirus 1 [11]) | MCC at 72 h [12] | EC50 (Reovirus sp.) | EC50 [14] | EC50 (Sindbis virus) | EC50 (Punta Toro virus) | EC50 (Coxsackievirus B4 [16]) | EC50 (Vaccinia virus) | EC50 (Human respirovirus 3) | other results |
| --- | --- | --- | --- | --- | --- | --- | --- | --- | --- | --- | --- | --- | --- | --- | --- | --- | --- | --- | --- | --- | --- |
| Brc1ccc(C2=NOC(c3ccc(OCc4ccccc4)cc3)C2)cc1 (stereo not given) | inactive | ≥ 20 µg/mL | 67 | 7.3 | 26.1 | 21 | inactive |  |  |  |  |  |  |  |  |  |  |  |  |  |  |
| Nc1ccn(C[C@@H](CO)OCP(=O)(O)O)c(=O)n1 [CIDOFOVIR] |  |  |  |  |  |  |  | 5 µM | 3 µM | > 250 µM | > 250 µM |  |  |  |  |  |  |  |  |  |  |
| Clc1ccc(C2=NN(c3ccccc3)C(c3ccc(OCc4ccccc4)cc3)C2)cc1 (stereo not given) | inactive | 100 µg/mL | 43 | 0 | 19 | 21 | inactive | > 20 µg/mL | > 20 µg/mL | > 20 µg/mL | 100 µg/mL | > 20 µg/mL | ≥ 20 µg/mL | > 20 µg/mL | > 20 µg/mL | > 20 µg/mL | > 20 µg/mL | > 20 µg/mL | > 20 µg/mL | > 20 µg/mL | selectivity ratio [13]: > 5; selectivity ratio [15]: > 5; selectivity ratio [17]: > 5; EC50 (Coxsackievirus B4 [18]): > 20 µg/mL; EC50 [19]: > 20 µg/mL; selectivity ratio [20]: > 5; selectivity ratio [21]: > 5 |
| Brc1ccc(C2=NN(c3ccccc3)C(c3ccc(OCc4ccccc4)cc3)C2)cc1 (stereo not given) | inactive | ≥ 20 µg/mL | 50 | 2 | 13.3 | 16 | inactive | > 20 µg/mL | > 20 µg/mL | > 20 µg/mL | 100 µg/mL | > 20 µg/mL | 100 µg/mL | > 20 µg/mL | > 20 µg/mL | > 20 µg/mL | > 20 µg/mL | > 20 µg/mL | > 20 µg/mL | > 20 µg/mL | selectivity ratio [13]: > 5; selectivity ratio [15]: > 5; selectivity ratio [17]: > 5; EC50 (Coxsackievirus B4 [18]): > 20 µg/mL; EC50 [19]: > 20 µg/mL; selectivity ratio [20]: > 5; selectivity ratio [21]: > 5 |
| Cc1ccc(C2=NOC(c3ccc(OCc4ccccc4)cc3)C2)cc1 (stereo not given) | inactive | > 100 µg/mL | 79 | 27 | 45 | 46 | inactive |  |  |  |  |  |  |  |  |  |  |  |  |  |  |
| Cc1ccc(C2=NN(c3ccccc3)C(c3ccc(OCc4ccccc4)cc3)C2)cc1 (stereo not given) | inactive | 100 µg/mL | 58 | 14 | 31 | 39 | inactive | > 20 µg/mL | > 20 µg/mL | > 20 µg/mL | 100 µg/mL | > 20 µg/mL | 100 µg/mL | > 20 µg/mL | > 20 µg/mL | > 20 µg/mL | > 20 µg/mL | > 20 µg/mL | > 20 µg/mL | > 20 µg/mL | selectivity ratio [13]: > 5; selectivity ratio [15]: > 5; selectivity ratio [17]: > 5; EC50 (Coxsackievirus B4 [18]): > 20 µg/mL; EC50 [19]: > 20 µg/mL; selectivity ratio [20]: > 5; selectivity ratio [21]: > 5 |
| c1ccc(COc2ccc(C3CC(c4ccccc4)=NN3c3ccccc3)cc2)cc1 (stereo not given) | inactive | 100 µg/mL | 30 | 7 | 0 | 23 | inactive | > 20 µg/mL | > 20 µg/mL | > 20 µg/mL | 100 µg/mL | > 20 µg/mL | 100 µg/mL | > 20 µg/mL | > 20 µg/mL | > 20 µg/mL | > 20 µg/mL | > 20 µg/mL | > 20 µg/mL | > 20 µg/mL | selectivity ratio [13]: > 5; selectivity ratio [15]: > 5; selectivity ratio [17]: > 5; EC50 (Coxsackievirus B4 [18]): > 20 µg/mL; EC50 [19]: > 20 µg/mL; selectivity ratio [20]: > 5; selectivity ratio [21]: > 5 |
| Nc1nc2c(ncn2COC(CO)CO)c(=O)[nH]1 [GANCICLOVIR] |  |  |  |  |  |  |  | 0.08 µM |  | > 100 µM | > 100 µM | 6 µM |  |  |  |  |  |  | > 100 µM |  |  |
| c1ccc(COc2ccc(C3CC(c4ccccc4)=NO3)cc2)cc1 (stereo not given) | inactive | > 100 µg/mL | 15 | 0 | 3 | 2 | inactive |  |  |  |  |  |  |  |  |  |  |  |  |  |  |
| NC(=O)c1ncn([C@@H]2O[C@H](CO)[C@@H](O)[C@H]2O)n1 [RIBAVIRIN] |  | > 250 µM |  |  |  |  |  | > 250 µM | > 250 µM | > 250 µM | > 250 µM | > 250 µM | > 250 µM | > 250 µM |  | > 250 µM |  | > 250 µM |  | 45 µM |  |
| O=c1[nH]c(=O)n([C@H]2C[C@H](O)[C@@H](CO)O2)cc1/C=C/Br [BRIVUDINE] |  |  |  |  |  |  |  | 126 µM |  | > 250 µM | > 250 µM | > 250 µM |  |  |  |  |  |  |  |  |  |
| Nc1ncnc2c1ncn2C[C@H](O)CO [(S)-DHPA] |  | > 250 µM |  |  |  |  |  |  |  |  |  |  | > 250 µM | > 250 µM | > 250 µM | > 250 µM | > 250 µM | > 250 µM |  | > 250 µM | EC50 (Coxsackievirus B4 [18]): > 250 µM; EC50 [19]: > 250 µM |
| Clc1ccc(C2=NOC(c3ccc(OCc4ccccc4)cc3)C2)cc1 (stereo not given) | inactive | > 100 µg/mL | 60 | 10 | 38 | 58 | inactive |  |  |  |  |  |  |  |  |  |  |  |  |  |  |
